In patent publication US12077503B2, “Substituted cyclic amides and their use as herbicides” (FMC CORPORATION, priority 2015, dated 2024):

Legend:
Format in all cases: in vivo
Kochia (Kochia scoparia) [1] = assay: Test A preemergence; conditions: Bassia scoparia, pre-emergence, 240 h, Preemergence
How it was run: (§1)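 Visual injury, scored on a 0–100 scale relative to untreated controls, was recorded about 10 d after application. Treatments were a preemergence soil spray over planted seeds or a postemergence spray on plants at the one- to two-leaf stage, 2 to 10 cm tall, all in loam soil–sand blend in the greenhouse.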

[2] = tested on: barnyardgrass (Echinochloa crus-galli); assay: Test A preemergence; conditions: Echinochloa crus-galli, pre-emergence, 240 h, Preemergence
How it was run: as §1

[3] = tested on: giant foxtail (Setaria faberii); assay: Test A preemergence; conditions: Setaria faberi, pre-emergence, 240 h, Preemergence
How it was run: as §1

[4] = tested on: pigweed (Amaranthus retroflexus); assay: Test A preemergence; conditions: Amaranthus retroflexus, pre-emergence, 240 h, Preemergence
[5] = tested on: ragweed (common ragweed, Ambrosia elatior); assay: Test A preemergence; conditions: Ambrosia artemisiifolia, pre-emergence, 240 h, Preemergence
How it was run: as §1

[6] = tested on: ryegrass, Italian (Italian ryegrass, Lolium multiflorum); assay: Test A preemergence; conditions: Lolium multiflorum, pre-emergence, 240 h, Preemergence
How it was run: as §1

[7] = tested on: Galium (catchweed bedstraw, Galium aparine); assay: Test A postemergence; conditions: Galium, post-emergence, 240 h, read-out: Plant response rating, Galium
How it was run: as §1

Kochia (Kochia scoparia) [8] = assay: Test A postemergence; conditions: Bassia scoparia, post-emergence, 240 h, read-out: Plant response rating, Kochia
How it was run: as §1

[9] = tested on: barnyardgrass (Echinochloa crus-galli); assay: Test A postemergence; conditions: Echinochloa crus-galli, post-emergence, 240 h, read-out: Plant response rating, Barnyardgrass
How it was run: as §1

[10] = tested on: blackgrass (Alopecurus myosuroides); assay: Test A postemergence; conditions: Alopecurus myosuroides, post-emergence, 240 h, read-out: Plant response rating, Blackgrass
How it was run: as §1

corn (Zea mays) = assay: Test A postemergence; conditions: Zea mays, post-emergence, 240 h
How it was run: as §1

[11] = tested on: giant foxtail (Setaria faberii); assay: Test A postemergence; conditions: Setaria faberi, post-emergence, 240 h, read-out: Plant response rating, Foxtail, Giant
How it was run: as §1

[12] = tested on: pigweed (Amaranthus retroflexus); assay: Test A postemergence; conditions: Amaranthus retroflexus, post-emergence, 240 h, read-out: Plant response rating, Pigweed
How it was run: as §1

[13] = tested on: ragweed (common ragweed, Ambrosia elatior); assay: Test A postemergence; conditions: Ambrosia artemisiifolia, post-emergence, 240 h, read-out: Plant response rating, Ragweed
How it was run: as §1

[14] = tested on: ryegrass, Italian (Italian ryegrass, Lolium multiflorum); assay: Test A postemergence; conditions: Lolium multiflorum, post-emergence, 240 h, read-out: Plant response rating, Ryegrass, Italian
How it was run: as §1

[15] = tested on: wheat (Triticum aestivum); assay: Test A postemergence; conditions: Triticum aestivum, post-emergence, 240 h, read-out: Plant response rating, Wheat
How it was run: as §1

[16] = 125 g ai/ha, postemergence, visual rating after approx. 10 d, 0 to 100 scale (0 no effect, 100 complete control)
[17] = Postemergence, 500 g ai/ha, 0 to 100 scale where 0 is no effect and 100 is complete control

**Q.** Which results are given for `CN1C[C@H](c2ccc(F)c(F)c2)[C@@H](C(=O)Nc2ccccc2F)C1=O` [Compound 596, (3S,4S)-4-(3,4-difluorophenyl)-N-(2-fluorophenyl)-1-methyl-2-oxo-3-pyrrolidinecarboxamide]?
**A.** pest or weed control at 125 g/ha (Kochia (Kochia scoparia) [1]; 125 g ai/ha, visual injury after approximately 10 d, 0 to 100 scale where 0 is no effect and 100 is complete control, read-out: Plant response rating, Kochia): 20%; pest or weed control at 500 g/ha (Kochia (Kochia scoparia) [1]; 500 g ai/ha, visual injury approx. 10 d, read-out: Kochia plant response rating (0 to 100 scale, 0 is no effect, 100 is complete control)): 70%; pest or weed control at 125 g/ha ([2]; 125 g ai/ha, visual injury after approximately 10 d, 0 to 100 scale where 0 is no effect and 100 is complete control, read-out: Plant response rating, Barnyardgrass): 90%; pest or weed control at 500 g/ha ([2]; 500 g ai/ha, visual injury approx. 10 d, read-out: Barnyardgrass plant response rating (0 to 100 scale, 0 is no effect, 100 is complete control)): 100%; pest or weed control at 125 g/ha ([3]; 125 g ai/ha, visual injury after approximately 10 d, 0 to 100 scale where 0 is no effect and 100 is complete control, read-out: Plant response rating, Foxtail, Giant): 100%; pest or weed control at 500 g/ha ([3]; 500 g ai/ha, visual injury approx. 10 d, read-out: Foxtail, Giant plant response rating (0 to 100 scale, 0 is no effect, 100 is complete control)): 100%; pest or weed control at 125 g/ha ([4]; 125 g ai/ha, visual injury after approximately 10 d, 0 to 100 scale where 0 is no effect and 100 is complete control, read-out: Plant response rating, Pigweed): 0%; pest or weed control at 500 g/ha ([4]; 500 g ai/ha, visual injury approx. 10 d, read-out: Pigweed plant response rating (0 to 100 scale, 0 is no effect, 100 is complete control)): 40%; pest or weed control at 125 g/ha ([5]; 125 g ai/ha, visual injury after approximately 10 d, 0 to 100 scale where 0 is no effect and 100 is complete control, read-out: Plant response rating, Ragweed): 0%; pest or weed control at 500 g/ha ([5]; 500 g ai/ha, visual injury approx. 10 d, read-out: Ragweed plant response rating (0 to 100 scale, 0 is no effect, 100 is complete control)): 20%; pest or weed control at 125 g/ha ([6]; 125 g ai/ha, visual injury after approximately 10 d, 0 to 100 scale where 0 is no effect and 100 is complete control, read-out: Plant response rating, Ryegrass, Italian): 40%; pest or weed control at 500 g/ha ([6]; 500 g ai/ha, visual injury approx. 10 d, read-out: Ryegrass, Italian plant response rating (0 to 100 scale, 0 is no effect, 100 is complete control)): 50%; pest or weed control at 125 g/ha [7, 16]: 30%; pest or weed control at 500 g/ha [7, 17]: 50%; pest or weed control at 125 g/ha (Kochia (Kochia scoparia) [8]; [16]): 40%; pest or weed control at 500 g/ha (Kochia (Kochia scoparia) [8]; [17]): 60%; pest or weed control at 125 g/ha [9, 16]: 90%; pest or weed control at 500 g/ha [9, 17]: 90%; pest or weed control at 125 g/ha [10, 16]: 20%; pest or weed control at 500 g/ha [10, 17]: 50%; Corn plant response rating (crop injury, 0 = no effect, 100 = complete kill) at 125 g/ha (corn (Zea mays); [16]): 20%; Corn plant response rating (crop injury, 0 = no effect, 100 = complete kill) at 500 g/ha (corn (Zea mays); [17]): 60%; pest or weed control at 125 g/ha [11, 16]: 90%; pest or weed control at 500 g/ha [11, 17]: 90%; pest or weed control at 125 g/ha [12, 16]: 0%; pest or weed control at 500 g/ha [12, 17]: 20%; pest or weed control at 125 g/ha [13, 16]: 0%; pest or weed control at 500 g/ha [13, 17]: 0%; pest or weed control at 125 g/ha [14, 16]: 0%; pest or weed control at 500 g/ha [14, 17]: 40%; plant injury at 125 g/ha [15, 16]: 0%; plant injury at 500 g/ha [15, 17]: 50%
